According to patent US20060205743A1, “Protein kinase inhibitors” (priority 2003, published 2006):

Target: MAPKAP-K2 (Homo sapiens, UniProt P49137)
Assay: MAPKAP-Kinase 2 Assay (33P-ATP peptide phosphorylation, filter plate)
Type: biochemical
Parameters: key: +: active; ++: more active; +++: very active
Settings: assays conducted at typically 1-100 μM
Procedure: MAPKAP-Kinase 2 Assay [Compound Preparation]
Compounds are dissolved in DMSO at a concentration of 3 mM and stored in aliquots at −20° C. Compounds in DMSO from these stock aliquots are diluted in 30% DMSO to produce initial working stock solutions of 1 mM and 3 mM. Both of these stock solutions are then subjected to 1:10 serial dilutions in 30% DMSO in order to prepare 3000, 1000, 300, 100, 30, 10, 3, 1, 0.1, 0.01 μM stock solutions. 5 μl of each stock solution is used per 50 μl reaction to give final assay concentrations of 300, 100, 30, 10, 3, 1, 0.3, 0.1, 0.01, 0.001 μM.
The kinase reaction is conducted in a round-bottomed polypropylene 96-well plate. MAPKAP-K2 is diluted to 25 mU/μl in diluent buffer (50 mM Tris/HCl. pH7.5, 0.1 mM EGTA, 0.1% (v/v) β-mercaptoethanol, 1 mg/ml BSA). 5 μl compound or 30% DMSO is added to each well followed by 25 μl substrate cocktail (10 μM ATP, 30 μM peptide (KKLNRTLSVA), 0.5 μCi ^33P-γ-ATP in 50 mM Tris pH7.5, 0.1 mM EGTA, 10 mM Mg-acetate, 0.1% BME). The reaction is initiated with the addition of 20 μl enzyme solution per well or 20 μl diluent buffer without enzyme. The plate is shaken for 10 sec and then left at room temperature for 30 min. The reaction is terminated with 50 μl 150 mM phosphoric acid. 90 μl of the reaction mixture is then transferred into a 96-well P81 filter plate (Millipore) and incubated at room temperature for 5 min. The filter plate is then washed 4 times with 200 μl 75 mM phosphoric acid per well on a plate vacuum manifold (Millipore) and dried in an oven for 2-3 h. Packard MicroScint ‘0’ (30 μl) is then added to each well, the plate is mixed for 30 min and subjected to liquid scintillation counting on a Packard TopCount.
[Interpretation] %Control=(X−B)/(Tot−B)×100 %Inhibition=100−% Control X=cpm of the test compound wells B=cpm of wells without enzyme Tot=cpm of wells with DMSO vehicle only

MAPKAP-K2, sequence (P49137 whole entry): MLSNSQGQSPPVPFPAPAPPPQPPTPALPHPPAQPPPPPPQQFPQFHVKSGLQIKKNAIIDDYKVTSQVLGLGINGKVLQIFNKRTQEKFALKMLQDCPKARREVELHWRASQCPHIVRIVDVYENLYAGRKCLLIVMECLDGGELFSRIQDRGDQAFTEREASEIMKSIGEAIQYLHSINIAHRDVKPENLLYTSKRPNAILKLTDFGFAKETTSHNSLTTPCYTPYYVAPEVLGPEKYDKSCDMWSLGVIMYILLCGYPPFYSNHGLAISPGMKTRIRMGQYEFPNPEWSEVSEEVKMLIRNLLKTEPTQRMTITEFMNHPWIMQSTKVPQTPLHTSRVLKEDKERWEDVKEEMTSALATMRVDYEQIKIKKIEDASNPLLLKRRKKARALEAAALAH

Row | Compound | MAPKAP-K2 activity
1 | C#CC(C)(C)Nc1cc(NC2CCC(N)CC2)nc2ccnn12 (stereo not shown) [Compound 111] | ++
2 | COc1ccc(Nc2cc(NC3CCC(N)CC3)nc3ccnn23)c(F)c1 (stereo not shown) [Compound 112] | +++
3 | CC(C)Oc1ccc(Nc2cc(NC3CCC(N)CC3)nc3ccnn23)c(F)c1 (stereo not shown) [Compound 113] | +++
4 | COc1ccc(Nc2cc(NC3CCC(N)CC3)nc3ccnn23)c(C)c1 (stereo not shown) [Compound 114] | ++
5 | CC(C)=CCCC(C)=CCNc1cc(NC2CCC(N)CC2)nc2ccnn12 (stereo not shown) [Compound 115] | +++
6 | NCCNc1cc(Nc2ccc(F)c(Cl)c2)n2nccc2n1 [Compound 116] | +
7 | Fc1ccc(Nc2cc(NC3CCC(NCc4ccccc4)CC3)nc3ccnn23)cc1Cl (stereo not shown) [Compound 120] | +
8 | Fc1ccc(Nc2cc(NC3CCC(NCCc4ccccc4)CC3)nc3ccnn23)cc1Cl (stereo not shown) [Compound 121] | ++
9 | Fc1ccc(Nc2cc(NC3CCC(NCCCc4ccccc4)CC3)nc3ccnn23)cc1Cl (stereo not shown) [Compound 124] | ++
10 | CCCCCNC1CCC(Nc2cc(Nc3ccc(F)c(Cl)c3)n3nccc3n2)CC1 (stereo not shown) [Compound 125] | ++
11 | Fc1ccc(Nc2cc(NC3CCC(NCC4CCCCC4)CC3)nc3ccnn23)cc1Cl (stereo not shown) [Compound 126] | +
12 | Fc1ccc(Nc2cc(NC3CCC(NCC4CCOC4)CC3)nc3ccnn23)cc1Cl (stereo not shown) [Compound 127] | ++
13 | Fc1ccc(Nc2cc(NC3CCC(NCc4ccoc4)CC3)nc3ccnn23)cc1Cl (stereo not shown) [Compound 128] | ++
14 | Fc1ccc(Nc2cc(NC3CCC(NCc4ccsc4)CC3)nc3ccnn23)cc1Cl (stereo not shown) [Compound 129] | ++
15 | CCC(CC)CNC1CCC(Nc2cc(Nc3ccc(F)c(Cl)c3)n3nccc3n2)CC1 (stereo not shown) [Compound 130] | +
16 | Fc1ccc(Nc2cc(NC3CCC(NCCCCc4ccccc4)CC3)nc3ccnn23)cc1Cl (stereo not shown) [Compound 131] | ++
17 | Fc1ccc(Nc2cc(NC3CCC(NCCCCCc4ccccc4)CC3)nc3ccnn23)cc1Cl (stereo not shown) [Compound 132] | ++
18 | Fc1ccc(Nc2cc(NC3CCC(NC4CCCCC4)CC3)nc3ccnn23)cc1Cl (stereo not shown) [Compound 134] | ++
19 | CC(C)NC1CCC(Nc2cc(Nc3ccc(F)c(Cl)c3)n3nccc3n2)CC1 (stereo not shown) [Compound 135] | ++
20 | CN1CCC(N[C@H]2CC[C@H](Nc3cc(Nc4ccc(F)c(Cl)c4)n4nccc4n3)CC2)CC1 [Compound 136] | +++
21 | CC(CN(C)C)N[C@H]1CC[C@H](Nc2cc(Nc3ccc(F)c(Cl)c3)n3nccc3n2)CC1 (stereo partly shown) [Compound 137] | +
22 | Fc1ccc(Nc2cc(N[C@H]3CC[C@H](NC4CCC(c5ccccc5)CC4)CC3)nc3ccnn23)cc1Cl (stereo partly shown) [Compound 138] | +
23 | CCOc1ccc(Nc2cc(NC3CCCNC3)nc3ccnn23)cc1 (stereo not shown) [Compound 139] | +++
24 | Ic1cccc(Nc2cc(NC3CCCNC3)nc3ccnn23)c1 (stereo not shown) [Compound 140] | +++
25 | Fc1ccccc1Nc1cc(NC2CCCNC2)nc2ccnn12 (stereo not shown) [Compound 141] | +++
